Changes are numbered by the printed parent chain.
Legend:
[1] = system: human prostate cancer cell LNCaP-FGC; assay: Prostate specific antigen (PSA) production inhibition in prostate cancer cell; format: cell-based; settings: 72 h, 1 μM compound, testosterone 1 ng/mL, three days, PSA in culture supernatant by ELISA, testosterone non-added group 100%, testosterone-added group 0%, read-out: PSA production Inhibitory rate (%) at 1 μM
Experimental: A human prostate cancer cell LNCaP-FGC was inoculated on a 96-well plate at 5000 cells/100 μL/well and, on the next day, testosterone having the final concentration of 1 ng/mL and 1 μM of a compound were added. Three days after addition, the PSA concentration in the culture supernatant was measured by ELISA, and a PSA production inhibition rate was calculated, letting the rate of a testosterone non-added group to be 100%, and letting the rate of a testosterone-added group to be 0%.

[2] = system: mouse prostate; assay: Test of reduction in weight of mouse prostate; format: in vivo; settings: 8 week old male mouse, drug non-addition 0%, castration 100%
From the text: A rate of reduction in a prostate weight is shown in Table 5, letting at drug non-addition to be 0%, and letting at castration to be 100%.

[3] = molecular target: T1, wild-type androgen receptor (AR) (Homo sapiens, UniProt P10275); assay: AR binding inhibitory test (wild type); settings: 1 μM compound, 3 nM miboleron, 4° C. for 3 hours, dextran/charcoal B/F separation; read-out: Inhibitory rate (%) at 1 μM, Wild type
T1 sequence (P10275 1-920): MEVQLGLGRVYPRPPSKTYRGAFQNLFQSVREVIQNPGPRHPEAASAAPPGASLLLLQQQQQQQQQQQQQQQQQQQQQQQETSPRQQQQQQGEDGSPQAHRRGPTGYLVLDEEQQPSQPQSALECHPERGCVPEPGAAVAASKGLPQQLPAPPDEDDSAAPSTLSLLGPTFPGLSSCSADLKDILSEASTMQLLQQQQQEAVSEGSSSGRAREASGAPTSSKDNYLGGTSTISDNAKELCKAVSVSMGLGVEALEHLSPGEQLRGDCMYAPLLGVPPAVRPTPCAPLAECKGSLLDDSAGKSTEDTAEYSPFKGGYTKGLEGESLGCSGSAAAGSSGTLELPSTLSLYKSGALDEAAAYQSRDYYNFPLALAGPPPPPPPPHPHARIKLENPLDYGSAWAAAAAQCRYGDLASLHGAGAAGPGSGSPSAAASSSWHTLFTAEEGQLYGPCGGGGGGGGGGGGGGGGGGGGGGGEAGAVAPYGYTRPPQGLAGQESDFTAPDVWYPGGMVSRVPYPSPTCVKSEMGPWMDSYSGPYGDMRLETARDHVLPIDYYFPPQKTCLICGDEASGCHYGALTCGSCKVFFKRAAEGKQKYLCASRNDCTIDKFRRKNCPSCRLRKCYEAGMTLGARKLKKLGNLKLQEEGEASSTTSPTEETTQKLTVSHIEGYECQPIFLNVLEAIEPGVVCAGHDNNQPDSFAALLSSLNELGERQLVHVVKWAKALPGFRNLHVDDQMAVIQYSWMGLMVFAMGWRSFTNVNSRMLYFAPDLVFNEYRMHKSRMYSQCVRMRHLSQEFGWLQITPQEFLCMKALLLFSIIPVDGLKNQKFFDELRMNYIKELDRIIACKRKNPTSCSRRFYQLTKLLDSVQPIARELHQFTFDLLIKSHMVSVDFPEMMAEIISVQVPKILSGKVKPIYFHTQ
Experimental: (§1) 3 nM miboleron and 1 μM of a compound was added to a solution containing a wild-type androgen receptor (AR) or an androgen receptor (AR) having a LNCaP type mutation, this was incubated at 4° C. for 3 hours, and B(Bound)/F(Free) separation was performed by a dextran/charcoal method. A label count of B was measured, and an inhibition rate of the compound was calculated.

[4] = molecular target: T2, androgen receptor (AR) having a LNCaP type mutation (Homo sapiens, UniProt P10275, T878A); assay: AR binding inhibitory test (LNCaP type); settings: 1 μM compound, 3 nM miboleron, 4° C. for 3 hours, dextran/charcoal B/F separation; read-out: Inhibitory rate (%) at 1 μM, LNCaP type
T2 sequence (P10275 1-920 T878A): T1 sequence (P10275 1-920) with T878A
Experimental: as §1

[5] = molecular target: T3, mutated AR (W741C) (Homo sapiens, UniProt P10275, W742C); assay: AR transcription inhibition test (luciferase reporter in Cos-7); format: cell-based; settings: 0.1 μM compound, DHT 0.04 μM, 24 hours, luciferase activity, relative to a control
T3 construct: expressed in transfected cells; host or cells: Cos-7
T3 sequence (P10275 1-920 W742C): T1 sequence (P10275 1-920) with W742C
Experimental: 5,000,000 Cells of Cos-7 was inoculated on a flask, and cultured in a culturing solution (DMEM+10% Dextran Charcoal (DCC)-Fetal Bovine Serum (FBS)+2 mM glutamine) for 24 hours, and a vector DNA in which mutated AR (W741C) had been inserted, and a vector DNA in which a luciferase gene had been connected downstream of an androgen-responsive promoter were transfected by a liposome method. After two hours, the medium was exchanged, the cells were cultured for 3 hours, DHT (dihydrotestosterone) having the final concentration of 0.04 μM and an assessment compound having the final concentration of 0.1 μM were added, and the cells were cultured for 24 hours, and luciferase activity was measured to investigate AR transcription inhibition activity of the assessment compound.

Row | SMILES | inhibition at 1 µM [1] | Reduction rate (%) of prostate weight ([2]; orally 50 mg/kg/day for 7 days) | Reduction rate (%) of prostate weight ([2]; orally 100 mg/kg/day (bicalutamide) for 7 days) | inhibition at 1 µM [3] | inhibition at 1 µM [4] | AR transcription Inhibitory rate (%) at 0.1 μM [5]
1 | Cc1c(C#N)c(-c2ccc(C#N)cc2)c(C)n1Cc1cnc(Cl)c(C(O)C(F)(F)F)c1 (stereo not drawn) [Example 38, 1-{[6-Chloro-5-(2,2,2-trifluoro-1-hydroxyethyl)pyridin-3-yl]methyl}-4-(4-cyanophenyl)-2,5-dimethyl-1H-pyrrole-3-carbonitrile] | 94% | 68% |  |  |  | 
2 | CC(O)(CS(=O)(=O)c1ccc(F)cc1)C(=O)Nc1ccc(C#N)c(C(F)(F)F)c1 (stereo not drawn) [bicalutamide, reference compound] | 58% |  | 40% |  |  | 
3 | CCCc1c(C#N)c(-c2ccc(C#N)cc2)c(C)n1Cc1cnc(Cl)c(CO)c1 [Compound 3, 1-{[6-Chloro-5-(hydroxymethyl)pyridin-3-yl]methyl}-4-(4-cyanophenyl)-5-methyl-2-propyl-1H-pyrrole-3-carbonitrile] | 99% |  |  | 96% | 99% | 78%
4 | Cc1c(C#N)c(-c2ccc(C#N)cc2)c(C)n1Cc1ccc(Cl)c(CO)c1 [Compound 26, 1-[4-Chloro-3-(hydroxymethyl)benzyl]-4-(4-cyanophenyl)-2,5-dimethyl-1H-pyrrole-3-carbonitrile] | 97% |  |  | 98% | 93% | 53%
5 | Cc1c(-c2ccc(C#N)cc2)cc(C2CC2)n1Cc1cnc(Cl)c(CO)c1 [Example 48, 4-(1-{[6-Chloro-5-(hydroxymethyl)pyridin-3-yl]methyl}-5-cyclopropyl-2-methyl-1H-pyrrol-3-yl)benzonitrile] | 98% |  |  | 30% | 87% | 
6 | Cc1c(C#N)c(-c2cccc(C#N)c2)c(C)n1Cc1cnc(Cl)c(CO)c1 [Compound 7, 1-{[6-Chloro-5-(hydroxymethyl)pyridin-3-yl]methyl}-4-(3-cyanophenyl)-2,5-dimethyl-1H-pyrrole-3-carbonitrile] | 94% |  |  |  |  | 
7 | Cc1cc(-c2ccc(C#N)cc2)c(C)n1Cc1cnc(Cl)c(CO)c1 [Example 46, 4-(1-{[6-Chloro-5-(hydroxymethyl)pyridin-3-yl]methyl}-2,5-dimethyl-1H-pyrrol-3-yl)benzonitrile] | 95% |  |  | 86% | 89% | 
8 | CCc1c(C#N)c(-c2ccc(C#N)cc2)c(C)n1Cc1cnc(Cl)c(CO)c1 [Compound 2, 1-{[6-Chloro-5-(hydroxymethyl)pyridin-3-yl]methyl}-4-(4-cyanophenyl)-2-ethyl-5-methyl-1H-pyrrole-3-carbonitrile] | 95% |  |  | 99% | 94% | 30%
9 | CCc1cc(-c2ccc(C#N)cc2)c(C)n1Cc1cnc(Cl)c(CO)c1 [Example 47, 4-(1-{[6-Chloro-5-(hydroxymethyl)pyridin-3-yl]methyl}-5-ethyl-2-methyl-1H-pyrrol-3-yl)benzonitrile] |  |  |  | 50% | 81% | 
10 | Cc1cc(-c2ccc(C#N)cc2)c(C#N)n1Cc1cnc(Cl)c(CO)c1 [Example 52, 1-{[6-Chloro-5-(hydroxymethyl)pyridin-3-yl]methyl}-3-(4-cyanophenyl)-5-methyl-1H-pyrrole-2-carbonitrile] | 99% |  |  |  |  | 
11 | Cc1c(-c2ccc(C#N)cc2)c(C#N)c(C2CC2)n1Cc1cnc(Cl)c(CO)c1 [Compound 5, 1-{[6-Chloro-5-(hydroxymethyl)pyridin-3-yl]methyl}-4-(4-cyanophenyl)-2-cyclopropyl-5-methyl-1H-pyrrole-3-carbonitrile] | 99% |  |  | 98% | 96% | 78%
